The values that follow come from PMC10135964, “One Scaffold, Two Conformations: The Ring-Flip of the Messenger InsP8 Occurs under Cytosolic Conditions” (Biomolecules, 2023).

Where two headings read alike, the source gives them in different places.

Broadly, the Kd is a measure of binding affinity in units of concentration.

In the experiment the target is T1, yeast VTC2 SPX domain (residues 1–182) (Saccharomyces cerevisiae, UniProt P43585).
T1 construct: The VTC2 SPX domain (residues 1–182) was expressed with a C-terminal His6-tag; His6 (C); made in house
T1 sequence (P43585 1-182): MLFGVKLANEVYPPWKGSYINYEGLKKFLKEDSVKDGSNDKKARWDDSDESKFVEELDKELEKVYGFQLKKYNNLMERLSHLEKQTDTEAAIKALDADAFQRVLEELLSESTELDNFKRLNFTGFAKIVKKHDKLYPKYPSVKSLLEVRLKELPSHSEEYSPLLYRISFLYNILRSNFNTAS
In words: Isothermal titration calorimetry of InsP8 binding to the VTC2 SPX domain. The conditions noted are these: 25 °C, pH 7.4, 150 mM KCl, 40 mM NaCl, mean of three replicates; for Kd: read-out: dissociation constant Kd. As for the experimental part:
The VTC2 SPX domain (residues 1–182) was expressed with a C-terminal His6-tag and purified by Ni-affinity and size-exclusion chromatography, as previously published.
Protein stocks were diluted to 300 µL with final buffer conditions: 25 mM HEPES pH 7.4, 150 mM KCl, 40 mM NaCl, 0.5 mM TCEP (ITC buffer). The exact protein concentration for each replicate was determined separately by Bradford assay. InsP8 was diluted to 500 µM in ITC buffer. For binding experiments in the presence of magnesium ions, both dilution buffers were supplemented with MgCl2 to give a final concentration of 1 mM after dilution.
ITC experiments were carried out at 25 °C in a MicroCal PEAQ-ITC calorimeter (Malvern Panalytical GmbH, Kassel, Germany), with ca. 50 µM protein in the cell and 500 µM ligand in the syringe. InsP8 was titrated into the solution in nineteen 2 µL-steps. Spacing between injections was 150 s.
The corresponding instrument software (MicroCal PEAQ-ITC Analysis) was used for baseline correction, peak integration, data fitting and determination of binding parameters.
For orientation: In ITC the heat of successive injections is recorded.

As to `O=P(O)(O)O[C@@H]1[C@@H](OP(=O)(O)O)[C@H](OP(=O)(O)OP(=O)(O)O)[C@@H](OP(=O)(O)O)[C@H](OP(=O)(O)OP(=O)(O)O)[C@@H]1OP(=O)(O)O` [InsP8, 1,5(PP)2-InsP4], under “1 mM MgCl2”, the ΔH of binding was -5.9 kcal/mol, the “−TΔS of binding” value is -3.3 kcal/mol and the Kd was 205 nM. Besides, where the note is “without divalent ions”, the ΔH of binding was -3.5 kcal/mol, the “−TΔS of binding” value was -5.2 kcal/mol and the equilibrium dissociation constant (Kd) was determined as 373 nM.
